The values below come from the Biogen ADME set (Fang et al. 2023).

≈ marks a conversion by molar mass, not a printed value.

The aqueous solubility is how much of the substance goes into solution per volume. Read a low aqueous solubility as a poorly soluble substance.

The conditions of this series: for aqueous solubility: pH 6.8.

`O=C1C(N2CCC(n3c(=O)[nH]c4ccccc43)CC2)CCN1c1ccccc1` (stereo unspecified) had an intrinsic clearance, human liver microsomes of 4.86 mL/min/kg; an intrinsic clearance, rat liver microsomes of 139 mL/min/kg; an aqueous solubility of 62 µg/mL (≈ 165 µM).

Turning to `NCCOc1cccc(CC(=O)N2CCC(F)(F)CC2)c1`, the MDR1-MDCK efflux ratio stood at 19.4; the intrinsic clearance, human liver microsomes was no more than 4.74 mL/min/kg; the intrinsic clearance, rat liver microsomes was no more than 10.7 mL/min/kg.

As for `OCCN1CCC(c2ccncn2)CC1`, the MDR1-MDCK efflux ratio was determined as 0.615; the intrinsic clearance, human liver microsomes is no more than 4.74 mL/min/kg; the intrinsic clearance, rat liver microsomes was 35.2 mL/min/kg; the aqueous solubility is 37.4 µg/mL (≈ 181 µM).

Turning to `COc1ccc(CNc2ncc(-c3ccc4c(c3)OCO4)n2C)c(OC)c1`, the MDR1-MDCK efflux ratio was 1.48; the intrinsic clearance, human liver microsomes is 202 mL/min/kg; the intrinsic clearance, rat liver microsomes amounted to 1590 mL/min/kg; the aqueous solubility worked out at 42.5 µg/mL (≈ 116 µM).

In the case of `Cn1ncc2c(NOCc3ccccc3)ncnc21`, the intrinsic clearance, human liver microsomes was found to be 15.2 mL/min/kg and the intrinsic clearance, rat liver microsomes worked out at 49.6 mL/min/kg.

As for `COc1cc2nn(CCC(C)(C)O)cc2cc1NC(=O)c1ccn(C(F)F)n1`, the MDR1-MDCK efflux ratio was determined as 10.2; the intrinsic clearance, human liver microsomes was found to be 18.7 mL/min/kg; the intrinsic clearance, rat liver microsomes was no more than 10.7 mL/min/kg.

`Cc1ccc(OCC(=O)Nc2ccncc2)c(C)c1` yielded an intrinsic clearance, human liver microsomes of 52.5 mL/min/kg; an intrinsic clearance, rat liver microsomes of 508 mL/min/kg; an aqueous solubility of 47.1 µg/mL (≈ 184 µM).

Regarding `CC(=O)N1CCN(c2c(Cl)cccc2NC(=O)COc2ccc(C(C)C)cc2)CC1`, the MDR1-MDCK efflux ratio was 2.13; the intrinsic clearance, human liver microsomes was 134 mL/min/kg; the intrinsic clearance, rat liver microsomes is 1990 mL/min/kg; the aqueous solubility stood at 2.7 µg/mL (≈ 6.28 µM).

Molecule `C=CCn1cc(CNCc2csc3ccc(Cl)cc23)c(C)n1` had an intrinsic clearance, human liver microsomes of 347 mL/min/kg; an intrinsic clearance, rat liver microsomes of 3200 mL/min/kg; an aqueous solubility of 21.4 µg/mL (≈ 64.5 µM).

As to `Cc1ccc(CNC(=O)CN2CCC(n3nnc4cc(C(F)(F)F)ccc43)CC2)cc1`, the intrinsic clearance, human liver microsomes was 41.4 mL/min/kg; the intrinsic clearance, rat liver microsomes stood at 168 mL/min/kg; the aqueous solubility is 11.5 µg/mL (≈ 26.6 µM).

Regarding `Cc1n[nH]c(C)c1CCCN(C)c1cncc(C(=O)N(C)C)n1`, the MDR1-MDCK efflux ratio was 93.7; the intrinsic clearance, human liver microsomes is 87.4 mL/min/kg; the intrinsic clearance, rat liver microsomes was 529 mL/min/kg.

For the molecule `COc1ccc(-c2cnn3c(N)c(-c4ccccc4)cnc23)cc1OC`, the MDR1-MDCK efflux ratio came out at 0.459 and the aqueous solubility was 0.19 µg/mL (≈ 0.549 µM).

For `Cc1ccccc1S(=O)(=O)Nc1c(C)ccnc1Cl`, the MDR1-MDCK efflux ratio turned out to be 0.795; the intrinsic clearance, human liver microsomes is no more than 4.74 mL/min/kg; the intrinsic clearance, rat liver microsomes is 194 mL/min/kg.

`Cc1nnc(NCc2cccnc2)c2ccccc12`: the MDR1-MDCK efflux ratio came out at 6.54; the intrinsic clearance, human liver microsomes is 5.21 mL/min/kg; the intrinsic clearance, rat liver microsomes is 51.4 mL/min/kg; the aqueous solubility amounted to 29.9 µg/mL (≈ 120 µM).

For `Cc1cc(C(=O)O)c2ccc(F)cc2n1`, the aqueous solubility was determined as 24.8 µg/mL (≈ 121 µM).

As to `c1ccc(-c2noc(Cn3ccnc3)n2)nc1`, the MDR1-MDCK efflux ratio turned out to be 1.44; the intrinsic clearance, human liver microsomes is no more than 4.74 mL/min/kg; the intrinsic clearance, rat liver microsomes is no more than 10.7 mL/min/kg.

Consider `Nc1nc(N)c2nc(-c3cccc(O)c3)c(-c3cccc(O)c3)nc2n1`, for which the MDR1-MDCK efflux ratio is 2.78; the intrinsic clearance, human liver microsomes is no more than 4.74 mL/min/kg; the intrinsic clearance, rat liver microsomes turned out to be 115 mL/min/kg; the aqueous solubility worked out at 2.1 µg/mL (≈ 6.06 µM).

As to `Cc1ccc(CN(C)c2ncnc3c2cnn3C)o1`, the MDR1-MDCK efflux ratio turned out to be 0.657; the intrinsic clearance, human liver microsomes worked out at 19.2 mL/min/kg; the intrinsic clearance, rat liver microsomes turned out to be 223 mL/min/kg; the aqueous solubility amounted to 40.9 µg/mL (≈ 159 µM).

`CCc1nnc(N2CC(N(C)C)C2)c(C#N)c1CC`: the MDR1-MDCK efflux ratio came out at 0.843; the intrinsic clearance, human liver microsomes came to 9.15 mL/min/kg; the intrinsic clearance, rat liver microsomes was 130 mL/min/kg.

As for `O=C(CN1CCCN(c2ccc(C(F)(F)F)cn2)CC1)Nc1ccccc1Cl`, the MDR1-MDCK efflux ratio was determined as 1.03; the intrinsic clearance, human liver microsomes is 229 mL/min/kg; the intrinsic clearance, rat liver microsomes was 1650 mL/min/kg; the aqueous solubility is 11 µg/mL (≈ 26.6 µM).

`O=C(c1noc2c1CCCC2)N1CCN(c2ncccn2)CC1`: the MDR1-MDCK efflux ratio was found to be 0.624; the intrinsic clearance, human liver microsomes is 10.3 mL/min/kg; the intrinsic clearance, rat liver microsomes turned out to be 2910 mL/min/kg; the aqueous solubility came out at 53.3 µg/mL (≈ 170 µM).

Regarding `O=C(c1cccc(CNc2ccc3nccnc3n2)c1)N1CCCCC1`, the MDR1-MDCK efflux ratio was 37.4; the intrinsic clearance, human liver microsomes was 13.9 mL/min/kg; the intrinsic clearance, rat liver microsomes is 146 mL/min/kg; the aqueous solubility worked out at 56.3 µg/mL (≈ 162 µM).

Consider `CC1(c2ccn[nH]2)CCN(Cc2ccco2)CC1`, for which the MDR1-MDCK efflux ratio came to 0.904; the intrinsic clearance, human liver microsomes is no more than 4.74 mL/min/kg; the intrinsic clearance, rat liver microsomes was determined as 76.4 mL/min/kg; the aqueous solubility amounted to 21 µg/mL (≈ 85.5 µM).

As to `O=C(O)c1cnn(-c2nc3cc(Cl)c(OC(F)(F)F)cc3[nH]2)c1`, the MDR1-MDCK efflux ratio was 1.05; the intrinsic clearance, human liver microsomes was no more than 4.74 mL/min/kg; the intrinsic clearance, rat liver microsomes is no more than 10.7 mL/min/kg.

`O=C(NCCc1nnc2n1CCC2)c1ccc2c(c1)CCC2`: the MDR1-MDCK efflux ratio came out at 82.7; the intrinsic clearance, human liver microsomes was no more than 4.74 mL/min/kg; the intrinsic clearance, rat liver microsomes is 45.1 mL/min/kg; the aqueous solubility worked out at 23.6 µg/mL (≈ 79.8 µM).

The molecule `O=C(C1CCCCC1)N1CCC[C@H]1Cn1nnc(-c2cccs2)n1` had an intrinsic clearance, human liver microsomes of 130 mL/min/kg and an intrinsic clearance, rat liver microsomes of 5120 mL/min/kg.

As to `N#CCCN(c1ncnc2sccc12)C1CC1`, the MDR1-MDCK efflux ratio is 0.714; the intrinsic clearance, human liver microsomes came out at 11 mL/min/kg; the intrinsic clearance, rat liver microsomes came to 231 mL/min/kg; the aqueous solubility is 39.8 µg/mL (≈ 163 µM).

`Cc1nc(CNC2CCN(C(=O)C3CC3)CC2)cs1`: the MDR1-MDCK efflux ratio was found to be 3.43; the intrinsic clearance, human liver microsomes was no more than 4.74 mL/min/kg; the intrinsic clearance, rat liver microsomes is no more than 10.7 mL/min/kg; the aqueous solubility was 42.6 µg/mL (≈ 152 µM).

As to `Cc1cccc(NC(=O)CN2CCCN(c3ccc(C(F)(F)F)cn3)CC2)c1`, the MDR1-MDCK efflux ratio amounted to 0.951; the intrinsic clearance, human liver microsomes was 150 mL/min/kg; the intrinsic clearance, rat liver microsomes was determined as 724 mL/min/kg; the aqueous solubility is 25.7 µg/mL (≈ 65.5 µM).

As for `O=C(Nc1cc(Cl)ccc1Cl)c1cccc(N2CCCC2=O)c1`, the intrinsic clearance, human liver microsomes was determined as 156 mL/min/kg; the intrinsic clearance, rat liver microsomes is 969 mL/min/kg; the aqueous solubility came out at 34.8 µg/mL (≈ 99.7 µM).

For `CC(C)(C)n1cc(CNc2cccnc2)cn1`, the MDR1-MDCK efflux ratio was 0.564; the intrinsic clearance, human liver microsomes is no more than 4.74 mL/min/kg; the intrinsic clearance, rat liver microsomes amounted to 41.7 mL/min/kg; the aqueous solubility came out at 25.4 µg/mL (≈ 111 µM).

Turning to `O=C(NC1CCCC1)C(=O)c1ccc2c(c1)CCC2`, the MDR1-MDCK efflux ratio came out at 0.548; the intrinsic clearance, human liver microsomes was found to be 163 mL/min/kg; the intrinsic clearance, rat liver microsomes was 908 mL/min/kg; the aqueous solubility was 31.3 µg/mL (≈ 122 µM).

As for `Cc1cc(C)nc(Nc2ccc(C3CCCN(CC(=O)N4CCCC4)C3)nc2)n1` (stereo unspecified), the MDR1-MDCK efflux ratio worked out at 41.3; the intrinsic clearance, human liver microsomes came to 8.28 mL/min/kg; the intrinsic clearance, rat liver microsomes came to 118 mL/min/kg; the aqueous solubility was determined as 66.6 µg/mL (≈ 169 µM).

Regarding `O=C(Nc1ccc(N2CCCC2)cn1)c1ccc(-c2cnco2)cc1`, the MDR1-MDCK efflux ratio turned out to be 0.338; the intrinsic clearance, human liver microsomes was 27.2 mL/min/kg; the intrinsic clearance, rat liver microsomes turned out to be 190 mL/min/kg.

`Cc1c(C(=O)Nc2cnccn2)cccc1-c1ccccn1` registered an intrinsic clearance, human liver microsomes of no more than 4.74 mL/min/kg and an intrinsic clearance, rat liver microsomes of 496 mL/min/kg.

`COc1cccc(Cc2cnc(N)s2)c1`: the MDR1-MDCK efflux ratio worked out at 0.671; the intrinsic clearance, human liver microsomes came to 17.8 mL/min/kg; the intrinsic clearance, rat liver microsomes was 281 mL/min/kg.

On to `Cc1cc(C)n2ncc(C(=O)NC3CCCCC3)c2n1`, for which the MDR1-MDCK efflux ratio stood at 0.702; the intrinsic clearance, human liver microsomes came out at 55.8 mL/min/kg; the intrinsic clearance, rat liver microsomes stood at 166 mL/min/kg; the aqueous solubility worked out at 4.94 µg/mL (≈ 18.1 µM).

As to `CN(C)C1(CNC(=O)N2CCCC(C)(C)CC2)CCOCC1`, the MDR1-MDCK efflux ratio turned out to be 16.5; the intrinsic clearance, human liver microsomes came to 8.43 mL/min/kg; the intrinsic clearance, rat liver microsomes was 120 mL/min/kg; the aqueous solubility was 56.9 µg/mL (≈ 183 µM).

Molecule `COCCOc1ccc2c(c1)ncn2-c1ccc2cccc(N3CCC(N)CC3)c2n1` yielded an intrinsic clearance, human liver microsomes of 14.7 mL/min/kg; an intrinsic clearance, rat liver microsomes of 258 mL/min/kg; an aqueous solubility of 30.4 µg/mL (≈ 72.7 µM).

`CCn1cnnc1CN(C)C1CCN(c2ccccc2F)CC1`: the MDR1-MDCK efflux ratio was found to be 2.68; the intrinsic clearance, human liver microsomes was no more than 4.74 mL/min/kg; the intrinsic clearance, rat liver microsomes was found to be 340 mL/min/kg.

Molecule `Brc1cnc(N2CCCN(c3ccccc3)CC2)nc1` registered an intrinsic clearance, human liver microsomes of 121 mL/min/kg and an intrinsic clearance, rat liver microsomes of 5670 mL/min/kg.

`CCN(CC)C(=O)Oc1cccc2cccnc12`: the intrinsic clearance, human liver microsomes was found to be 20.6 mL/min/kg and the intrinsic clearance, rat liver microsomes worked out at 189 mL/min/kg.

As to `C=CCn1cnc2c(Cl)cc(-c3ccc(C(=O)NC4CC4)o3)cc21`, the MDR1-MDCK efflux ratio worked out at 5.09; the intrinsic clearance, human liver microsomes is 27.5 mL/min/kg; the intrinsic clearance, rat liver microsomes worked out at 115 mL/min/kg; the aqueous solubility turned out to be 33.2 µg/mL (≈ 97 µM).

For `Cc1nnsc1CN(C)c1ccc2cc[nH]c2n1`, the MDR1-MDCK efflux ratio amounted to 0.593; the intrinsic clearance, human liver microsomes turned out to be 39.3 mL/min/kg; the intrinsic clearance, rat liver microsomes is 342 mL/min/kg; the aqueous solubility turned out to be 24.5 µg/mL (≈ 94.5 µM).

`COc1ccc(=O)n(Cc2noc3c2CCCC3)n1`: the MDR1-MDCK efflux ratio stood at 0.806; the intrinsic clearance, human liver microsomes was found to be 11.4 mL/min/kg; the intrinsic clearance, rat liver microsomes turned out to be 270 mL/min/kg.

In the case of `Cc1cc(C(=O)N(C)c2nc3ccccc3s2)cc(O)n1`, the MDR1-MDCK efflux ratio amounted to 4; the intrinsic clearance, human liver microsomes was no more than 4.74 mL/min/kg; the intrinsic clearance, rat liver microsomes turned out to be 16.1 mL/min/kg.

`COc1nn(C)cc1C(=O)Nc1cccc2cnccc12` yielded a fraction unbound, human plasma of 0.32; a fraction unbound, rat plasma of 0.389; an intrinsic clearance, human liver microsomes of 99.7 mL/min/kg; an intrinsic clearance, rat liver microsomes of 180 mL/min/kg. Moreover, the aqueous solubility is 40.5 µg/mL (≈ 143 µM).
